The test system of assay [1] is Helicoverpa armigera eggs. In words: Helicoverpa egg hatch. As to conditions: 10 mM; Example 16; exposed 2-10 seconds; day 6 post laying.
Protocol: A range of concentrations were made up in water and the eggs placed in the solutions for approximately 2-10 seconds. The eggs which had been laid on cloth were then blotted dry and placed in an incubator at 26° C. for 3-4 days until hatch. Hatch rates were then assessed compared to a water only treated control (FIG. 5).
The compound was dissolved in 100% diethoxyglycol and diluted to a final concentration of 1% in water.
Several hundred Helicoverpa armigera eggs (Tatura×Toowoomba strains) were collected, that had been laid on fine mesh cloth over a 24 hour period.
Batches of Helicoverpa eggs were exposed to a specific inhibitor solution for between 2-10 seconds the excess solution drained by blotting with dry tissue paper. The egg masses were then placed in a humid box at 25 degrees until egg hatch. Control eggs were exposed to absolute methanol as described above. At day 6 post laying the eggs were assessed from the different treatments and the percentage of egg hatch determined relative to the control as shown in Table 12.
Batches of Helicoverpa eggs were then exposed to a specific inhibitor solution for between 2-10 seconds the excess solution drained by blotting with dry tissue paper. The egg masses were then placed in a humid box at 25° C. until egg hatch. Control eggs were exposed to absolute methanol as described above. At day 6 post laying the eggs were assessed from the different treatments and the percentage of egg hatch determined relative to the control as shown in Table 13.
In a further assay the test system is lice eggs. Nature of the assay: Standard lice egg-hatching assay with commercial head lice products. Format: in vivo. As to conditions: Example 10; products per manufacturer's recommendations, 1,10-phenanthroline 10 mM. Here is the method:
The ovicidal properties of three major commercial head lice products were evaluated in the standard lice egg-hatching assay. The 3 commercial head lice products were as follows:
These three products were tested according to manufacturer's recommendations. Groups of eggs (24 hours old) were treated with the different products according to manufacturer's recommendations for the appropriate period of time (5-10 minutes) followed by a rinse for 1-2 minutes in 32° C. water. A positive controls (10 mM 1,10-phenanthroline) and two negative controls (no treatment and 20% Methanol) were also incorporated. Post exposure to the different products, the eggs were rinsed with warm water at 32° C. before being blotted dry on tissue paper and placed at 32° C., 70% RH and left to hatch. A second group of eggs, (48 hours old) were treated as previously described and also left to hatch. This process was repeated at 24 hour intervals on head lice eggs up to 120 hours post laying.
The ovicidal properties of two major commercial head lice products were evaluated in the standard lice egg-hatching assay. The 2 commercial head lice products were as follows:
These two products were tested according to manufacturer's recommendations. […]

Assay [2] deals with body lice eggs (clothing lice). In words: In vitro lice egg hatching bioassay (standard lice assay, time course).
Protocol: Male and female clothing lice were fed on a rabbit as previously described. Female and male adult lice in a ratio of 3:1 were then transferred to a clean petri dish containing nylon cloth approximately 3×3 cm^2 and left for 12 hours at 32° C. During this period the female lice laid their eggs and attached them to the woven cloth. All lice would then be removed and the eggs permitted to incubate for the following 5 days. On Day 6 the cloth containing the eggs would be placed for 1 minute in a 1% sodium hypochlorite solution and then washed extensively. The eggs would then progress through to their final stages of development and hatch.
Lice eggs were laid onto cloth as described above. Five days post laying the cloth containing lice eggs was removed and immersed in a 1% sodium hypochlorite solution before being washed extensively in distilled water and blotted dry on tissue paper. Lice eggs were counted under a dissecting microscope and the cloth cut into batches of between 10-30 eggs with 3-5 replicates used per treatment. The cloth containing lice eggs was then immersed in a protease inhibitor solution for a period of 10 minutes, placed on tissue paper for 1 minute to dry before being transferred to a clean petri dish and incubated until hatching. […] Specifically a stock solution was prepared as follows: 1,10-phenanthroline (200 mM in methanol). In addition, the equivalent levels of the solvent were added to the non-inhibitor containing controls eggs to test for any buffer alone effects. Percentage hatch inhibition was calculated as the percentage reduction in egg hatch compared to the untreated control. The untreated control was assigned a percentage hatch of 100%.
A series of time-course experiments was conducted as a means of assessing inhibitors of lice egg hatching. […]
An experiment was undertaken to determine whether washing of the eggs would effect the inhibitory activity of 1,10-phenanthroline (Table 3). […] Percentage hatch inhibition was calculated as the percentage reduction in egg hatch compared to the untreated control. […]
The test system of another assay is head lice egg. In words: Head lice egg hatching, time course. The class given is in vivo, Pediculus humanus capitus. As to conditions: 10 mM, 10 minutes. Here is the method: Tests were carried out to determine if metal chelating agent and metalloprotease inhibitor 1,10-phenanthroline could inhibit head lice egg (Pediculus humanus capitus) hatching as opposed to body lice. Head lice eggs were obtained by placing groups of both 1-2 adult male and 6-8 adult female head lice in separate wells in a 24 well petri dish containing cotton cloth. The petri dish was transferred to a humid incubator at 32° C., 70% RH for 12 hours to permit the female lice to lay their eggs. After 12 hours, all adult lice were removed from the petri dish wells and a series of time-course experiments conducted. A group of eggs (24 hr old) was treated for 10 minutes with 200 μL of a 10 mM solution of 1,10-phenanthroline. A control (ie no inhibitor treatment) group of eggs was also included. The eggs were removed from the inhibitor, blotted dry on tissue paper, placed at 32° C., 70% RH and left to hatch. A second group of eggs, (48 hours old) were treated as previously described and also left to hatch. This process was repeated at 24 hour intervals on head lice eggs up to 120 hours post laying.

Assay [3] has as its system Plutella xylostella eggs (Waite strain). Nature of the assay: Plutella xylostella egg hatch (egg dip). As to conditions: 10 mM; Example 12; dip 2-10 seconds; day 6 post laying.
Protocol: Several hundred Plutella xylostella eggs (Waite strain) were collected, that had been laid over a 24 hour period.
The egg masses were then placed in a humid box at 25° C. until egg hatch. Control eggs were exposed to absolute methanol as described above. At day 6 post laying the eggs were assessed from the different treatments and the percentage of egg hatch determined relative to the control as shown in Table 9.
Batches of Plutella eggs that were laid on either fine cloth or parafilm were dipped in a specific inhibitor solution for between 2-10 seconds, the excess solution was drained by blotting with dry tissue paper. The egg masses were then placed in a humid box at 25 degrees until egg hatch. Control eggs were exposed to absolute methanol as described above or not treated. At day 6 post laying the eggs were assessed from the different treatments and the percentage of egg hatch determined relative to the controls as shown in Tables 10 and 11.
The egg masses were then placed in a humid box at 25 degrees until egg hatch. Control eggs were exposed to absolute ethanol as described above. On day 6 post laying the eggs were assessed from the different treatments and the percentage of egg hatch determined relative to the control.
The subject of assay [4] is proteases in louse egg shell washings (ESW). In words: Gelatine substrate SDS-PAGE of louse egg shell washings incubated with protease inhibitors. Format: biochemical, Pediculus humanus humanus. Here is the method:
Within 12 hours of hatching 50 body lice eggs (Pediculus humanus humanus) were removed from the hair and placed in a 1 mL eppendorf tube. 20 μL of distilled water was added to the unhatched eggs and the preparation incubated for 30 minutes at 32° C. The 20 μL was recovered, freeze dried and stored at −70° C. This sample was referred to as sample 1. A number of other samples were also collected as described. Sample 2 was collected by removing the unhatched louse eggs from four hairs that were approximately 3 cm long, cutting the hair into 0.5 cm lengths, and placing them into a microfuge tube containing 20 μl of distilled water and incubating at 32° C. for 30 minutes. Sample 3 was collected as for sample 2, but the hair was placed in a tube containing 10 mL of 1% sodium hypochlorite for 1 minute followed by five 1 minute washes in 25 mL of distilled water to remove the sodium hypochlorite before being incubated in a microfuge tube containing 20 μl of distilled water and incubated as for Sample 2. Sample 4 was collected from unhatched eggs which were removed from the hair and washed with 1% sodium hypochlorite and incubated in 20 μl of distilled water in the same manner as the hair in Sample 3. Finally, Sample 5 was collected from eggs that were within 24 hrs of hatching which were washed with 1% sodium hypochlorite, then returned to the incubator at 32° C. until they hatched, the empty egg shells collected 0-2 hrs after egg-hatching, placed in a 1 mL microfuge tube containing 20 μl of distilled water and incubated as for Samples 1-4. For all samples 1-5 the 20 μl of fluid was recovered, freeze-dried and stored at −70° C. The washings recovered from these freshly hatched egg shells are referred to as egg-shell-washings (ESWs). In order to look for the presence of proteases present in these different samples, the freeze-dried samples were resuspended in 15 μL of non-reducing SDS sample buffer, centrifuged at 10,000 g for 2 minutes and the entire 15 μL loaded on to 10% gelatine substrate SDS-PAGE gels. Gels were run at 4° C. for 10 minutes at 10 mA followed by a further 25 minutes at 15 mA per gel. They were then incubated for 2×20 minutes in a 2.5% Triton-X 100 solution followed by a three hour incubation in 0.1M Tris/HCl containing 1 mM CaCl2 pH 8.0. Activity was detected as clear areas on the gel the result of protease activity degrading the gelatine within the gel.
Protease activity in the ESWs from louse eggs was also examined using two-dimensional gel electrophoresis. It was necessary to collect large numbers of freshly hatched egg shells. Following egglaying onto pieces of cloth, adult female lice were removed and the cloth with the eggs washed with 1% sodium hypochlorite as for collection of ESWs. The eggs were then returned to the incubator and permitted to hatch. Typically 100 to 500 hatched egg shells were collected (0-2 hours post hatching), placed in a microfuge tube containing 200 μl of distilled water, incubated and sample treated as described above. For analysis, ESWs were resuspended in rehydration buffer (8 M Urea, 2% 3-[(3-cholamidopropyl) dimethylammonio]-1-propanesulfonate 2% Immobilised pH gradient buffer 3-10 (Amersham Phamacia Biotech, Uppsala, Sweden)) and used to rehydrate 7 cm Immobiline Dry strips pH 3-10 (Amersham Bioscience) overnight. Strips were transferred to the Multiphor II (Pharmacia, Sweden) apparatus, electrophoresed in the first dimension at 200 V for 1 min, increasing to 3,500 V over the next 90 min followed by 65 min at 3,500 V, equilibrated (6 M urea, 30% glycerol, 50 mM Tris pH 8.8 and 2% SDS) and then run on a 10% SDS-PAGE gel containing 0.1% gelatin for the second dimension. The gel was then run and developed as previously described.
10% SDS-PAGE gelatine substrate gels were loaded with freeze dried egg shell washings from 100 lice eggs that had been resuspended in 50 μL of non-reducing sample buffer with samples run at 10 μL per lane. […]

Assay [5] deals with Lice (L) / Plutella (P) eggs. Format: in vivo. The conditions noted are these: 10 mM; Lice/Plutella: L P. Here is the method:
Log LD50 is obtained from the observed percentage ovicidal activity by conversion using a modified logit transformation. The observed percentage ovicidal activity values were transformed using the equation:
The additional 5% was used to allow a number to be calculated when 0% and 100% activity was observed. The BA is a crude correction to the log of the concentration at which the compounds were tested. Correlation between BA values and LD50 allows the calculation of Log LD50. […] A number of metal chelating agents with potential for inhibiting the remodelling events associated with thin membrane egg hatching in lice were analysed by comparing their percentage ovicidal activity in lice at different concentrations, their logit calculated pLD50, Pref pLD50, Activity class, clogP and molar refractivity were determined.

With `c1cnc2c(c1)ccc1cccnc12` [1,10-phenanthroline], the “% Inhibition of egg hatch relative to control” value in assay [1] was “able to inhibit”; in assay [3] it was “significantly inhibit”. Further, in the assay with lice eggs, the “ovicidal activity across the different stages of lice egg hatching” value is “highly effective”. Moreover, in assay [2] (10 mM, 10 minutes, washed 1 minute), the “inhibition of lice egg hatching following washing of eggs in water” value is recorded as “still highly efficacious”. In assay [2] (10 mM, eggs treated 5 days post laying, 10 minutes), the “inhibition of egg hatching in lice” value was “significantly inhibited”. Moreover, the “egg hatching in lice” value in assay [2] (2.5-10 mM, all time points examined) is given as “significantly inhibit”. For the same compound, the “egg hatching in head lice” value in the assay on head lice egg was “significantly inhibit”. For the same compound, the “protease activity of egg shell washings, two dimensional gel” value in assay [4] (gel incubated with 10 mM 1,10-phenanthroline) is “general reduction in protease activity in the 25-30 kDa region and a clear reduction in the proteases present around the 50 kDa region and above 75 kDa”. In assay [4] (gelatine SDS-PAGE strips, EDTA 10 mM, 1,10-phenanthroline 10 mM, PMSF 5 mM, E-64 10 μM, Pepstatin 5 μM, 3 hrs at 37° C.), the “protease activity of egg shell washings compared to untreated controls” value was “reduction in protease activity”. Besides, the “Activity class 0 = inactive 1 = low 2 = med 3 = high” value in assay [5] is 1 (a pLD50 value between 2 and 3 is considered weakly active (Class 1)).

The values above are taken from patent publication US20100204277A1, “Compositions and Methods for Controlling Infestation” (HATCHTECH PTY LTD., priority 2007, published 2010).
